Like-named read-outs stand apart in the source and are kept apart here. Non-standard residues stand in square brackets, D forms with d. Residues, ends and D or L forms follow the SMILES beside them. Gly(octyl) = CCCCCCCC[C@H](N)C(=O)O
Assay: Phase-Ib study in CF patients, plasma pharmacokinetics (LC-MS/MS)
Type: in vivo
Conditions: human, inhaled or intranasal; for Tmax: inhalation, CF patients; for level at 24 h: read-out: mean plasma concentration 24 hours after inhalation; for half-life: read-out: mean terminal half-life (plasma) (converted)
Experimental: AUC0-∞, AUC0-∞/D, Cmax, Cmax/D of active compound in plasma as primary variables and tmax, t1/2, λ2, […] of active compound in plasma as secondary variables.
Blood samples for the determination of the plasma concentrations of active compound were taken at the following points in time:
On Day 1 at pre-dose, 10 min, and 0.5 h, 1 h, 2 h, 3 h, 4 h, 6 h, 8 h, 12 h, 15 h, and on Day 2 at 24 h post dose (after start of inhalation).
The samples were collected in closed K3-EDTA plasma sampling tubes (Monovette® Sarstedt, Germany). The accepted time-interval for sample handling procedures for each individual study sample, i.e., the time between sample collection and sample centrifugation had not to exceed 60 min, and the time between the end of centrifugation and sample freezing had also not to exceed 60 min.
The samples were centrifuged at approximately 4° C. (±2° C.) at 2200×g for 15 min.
The resulting plasma supernatant was then transferred into 2 polypropylene tubes (1st aliquot of at least 1 mL and backup) and frozen in upright position below […]
For the analysis of active compound in plasma, a validated and highly sensitive liquid chromatography tandem mass spectrometry (LC-MS/MS) method was used.
The pharmacokinetic parameters mentioned above were calculated based on actual blood and sputum sampling times using non-compartmental procedures.

CCCCCCCC[C@@H]1NC(=O)[C@@H]2CCCN2C(=O)[C@H]2CCCN2C(=O)[C@H](Cc2ccc(O)cc2)NC(=O)[C@H](CCCCN)NC(=O)[C@H](CCC(N)=O)NC(=O)[C@@H]2CCCN2C(=O)[C@@H]2CCCN2C(=O)[C@H]([C@@H](C)CC)NC(=O)[C@H](CO)NC(=O)[C@H](C)NC(=O)[C@H]([C@@H](C)O)NC(=O)[C@H](CCC(=O)O)NC1=O [active compound, cyclo(-OctG-Glu-Thr-Ala-Ser-Ile-Pro-Pro-Gln-Lys-Tyr-^DPro-Pro-)] (cyclo([Gly(octyl)]ETASIPPQKY[dP]P))
Tmax (dose group 1 (80 mg)): 1.3 h
level at 24 h (dose group 1 (80 mg)): 2.8 ng/mL
half-life (dose group 1 (80 mg)): 4.1 h
Tmax (dose group 2 (160 mg)): 1.5 h
level at 24 h (dose group 2 (160 mg)): 4.4 ng/mL
half-life (dose group 2 (160 mg)): 3.5 h
Tmax (dose group 3 (320 mg)): 2.3 h
level at 24 h (dose group 3 (320 mg)): 15.2 ng/mL
half-life (dose group 3 (320 mg)): 3.8 h
